Experimental data as given in PubChem BioAssay AID256 (DTP/NCI, 2004).
Several values for one entry are separate records, joined by “and”; a condition that tells them apart may be missing. Equal values may be shown once. Inconclusive results and toxic doses are left out.

Test system: CD2F1 mice, L1210 leukemia ip, survival T/C
Assay: NCI In Vivo Anticancer Drug Screen. Data for tumor model L1210 Leukemia (intraperitoneal) in CD2F1 (CDF1) mice
Conditions: higher = longer survival
In short: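 Each value reflects a quotient of treated over vehicle control outcomes in mice with a transplanted tumor.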

[1] = endpoint: mean survival time, dose: 100.0 mg/kg/injection, schedule: Q04DX003 (ip), vehicle: saline with Tween-80
[2] = endpoint: mean survival time, dose: 200.0 mg/kg/injection, schedule: Q04DX003 (ip), vehicle: saline with Tween-80
[3] = endpoint: mean survival time, dose: 400.0 mg/kg/injection, schedule: Q04DX003 (ip), vehicle: saline with Tween-80
[4] = endpoint: mean survival time, dose: 100.0 mg/kg/injection, schedule: Q01DX009 (ip), vehicle: saline with Tween-80
[5] = endpoint: mean survival time, dose: 50.0 mg/kg/injection, schedule: Q01DX001 (ip), vehicle: carboxymethylcellulose (CMC)
[6] = endpoint: mean survival time, dose: 100.0 mg/kg/injection, schedule: Q01DX001 (ip), vehicle: carboxymethylcellulose (CMC)
[7] = endpoint: mean survival time, dose: 200.0 mg/kg/injection, schedule: Q01DX001 (ip), vehicle: carboxymethylcellulose (CMC)
[8] = endpoint: mean survival time, dose: 400.0 mg/kg/injection, schedule: Q01DX001 (ip), vehicle: carboxymethylcellulose (CMC)

With `CC(=O)Nc1nc(CCl)cs1` the T/C (endpoint: mean survival time, dose: 100.0 mg/kg/injection, schedule: Q01DX001 (ip), vehicle: Klucel (hydroxypropylcellulose) (HPC)) was 92 % of control and the T/C (endpoint: mean survival time, dose: 200.0 mg/kg/injection, schedule: Q01DX001 (ip), vehicle: Klucel (hydroxypropylcellulose) (HPC)) was 87 % of control.

In the case of `Cc1nc([N+](=O)[O-])c(Br)n1C`, the T/C [1] is reported as 103 % of control, the T/C [2] is reported as 108 % of control and the T/C [3] is reported as 94 % of control.

For `OC(C1CO1)C(O)C1CO1` (stereo not drawn), the T/C (endpoint: mean survival time, dose: 0.13 mg/kg/injection, schedule: Q03HX008 (ip), vehicle: saline) was 101 % of control, the T/C (endpoint: mean survival time, dose: 0.25 mg/kg/injection, schedule: Q03HX008 (ip), vehicle: saline) was 105 % of control and the T/C (endpoint: mean survival time, dose: 0.25 mg/kg/injection, schedule: Q03HX016 (ip), vehicle: saline) was 104 % of control. For the same molecule, the T/C (endpoint: mean survival time, dose: 0.25 mg/kg/injection, schedule: Q03HX024 (ip), vehicle: saline) was 104 % of control, the T/C (endpoint: mean survival time, dose: 0.5 mg/kg/injection, schedule: Q01DX009 (ip), vehicle: saline) was 117 % of control and 119 % of control and 121 % of control and the T/C (endpoint: mean survival time, dose: 0.5 mg/kg/injection, schedule: Q01DX009 (sc), vehicle: saline) was 104 % of control. For the same molecule, the T/C (endpoint: mean survival time, dose: 0.5 mg/kg/injection, schedule: Q03HX008 (ip), vehicle: saline) was 112 % of control, the T/C (endpoint: mean survival time, dose: 0.5 mg/kg/injection, schedule: Q03HX016 (ip), vehicle: saline) was 115 % of control and the T/C (endpoint: mean survival time, dose: 1.0 mg/kg/injection, schedule: Q01DX001 (ip), vehicle: saline) was 98 % of control and 108 % of control. For the same molecule, the T/C (endpoint: mean survival time, dose: 1.0 mg/kg/injection, schedule: Q01DX001 (sc), vehicle: saline) was 106 % of control, the T/C (endpoint: mean survival time, dose: 1.0 mg/kg/injection, schedule: Q01DX009 (sc), vehicle: saline) was 114 % of control and the T/C (endpoint: mean survival time, dose: 1.0 mg/kg/injection, schedule: Q03HX024 (ip), vehicle: saline) was 177 % of control. For the same molecule, the T/C (endpoint: mean survival time, dose: 1.0 mg/kg/injection, schedule: Q04DX003 (ip), vehicle: saline) was 107 % of control, the T/C (endpoint: mean survival time, dose: 1.4 mg/kg/injection, schedule: Q04DX003 (ip), vehicle: saline) was 96 % of control and the T/C (endpoint: mean survival time, dose: 2.0 mg/kg/injection, schedule: Q01DX001 (ip), vehicle: saline) was 116 % of control and 111 % of control. The T/C (endpoint: mean survival time, dose: 2.0 mg/kg/injection, schedule: Q01DX001 (sc), vehicle: saline) was 111 % of control, the T/C (endpoint: mean survival time, dose: 2.0 mg/kg/injection, schedule: Q03HX008 (ip), vehicle: saline) was 171 % of control and the T/C (endpoint: mean survival time, dose: 2.0 mg/kg/injection, schedule: Q03HX016 (ip), vehicle: saline) was 201 % of control. For the same molecule, the T/C (endpoint: mean survival time, dose: 2.0 mg/kg/injection, schedule: Q03HX024 (ip), vehicle: saline) was 109 % of control, the T/C (endpoint: mean survival time, dose: 2.0 mg/kg/injection, schedule: Q04DX003 (ip), vehicle: saline) was 123 % of control and 104 % of control and 112 % of control and the T/C (endpoint: mean survival time, dose: 2.0 mg/kg/injection, schedule: Q08DX002 (ip), vehicle: saline) was 118 % of control. For the same molecule, the T/C (endpoint: mean survival time, dose: 3.0 mg/kg/injection, schedule: Q01DX009 (ip), vehicle: saline) was 192 % of control, the T/C (endpoint: mean survival time, dose: 3.0 mg/kg/injection, schedule: Q04DX003 (ip), vehicle: saline) was 119 % of control and the T/C (endpoint: mean survival time, dose: 4.0 mg/kg/injection, schedule: Q01DX001 (ip), vehicle: saline) was 115 % of control and 121 % of control. For the same molecule, the T/C (endpoint: mean survival time, dose: 4.0 mg/kg/injection, schedule: Q01DX001 (sc), vehicle: saline) was 112 % of control, the T/C (endpoint: mean survival time, dose: 4.0 mg/kg/injection, schedule: Q01DX009 (ip), vehicle: saline) was 204 % of control and 247 % of control and the T/C (endpoint: mean survival time, dose: 4.0 mg/kg/injection, schedule: Q01DX009 (sc), vehicle: saline) was 163 % of control. The T/C (endpoint: mean survival time, dose: 4.6 mg/kg/injection, schedule: Q01DX009 (ip), vehicle: saline) was 182 % of control, the T/C (endpoint: mean survival time, dose: 4.6 mg/kg/injection, schedule: Q04DX003 (ip), vehicle: saline) was 162 % of control and the T/C (endpoint: mean survival time, dose: 5.0 mg/kg/injection, schedule: Q01DX001 (ip), vehicle: saline) was 123 % of control. The T/C (endpoint: mean survival time, dose: 6.7 mg/kg/injection, schedule: Q04DX003 (ip), vehicle: saline) was 171 % of control, the T/C (endpoint: mean survival time, dose: 7.0 mg/kg/injection, schedule: Q01DX001 (ip), vehicle: saline) was 156 % of control and the T/C (endpoint: mean survival time, dose: 7.0 mg/kg/injection, schedule: Q01DX009 (ip), vehicle: saline) was 106 % of control. The T/C (endpoint: mean survival time, dose: 7.0 mg/kg/injection, schedule: Q04DX003 (ip), vehicle: saline) was 190 % of control, the T/C (endpoint: mean survival time, dose: 8.0 mg/kg/injection, schedule: Q01DX001 (ip), vehicle: saline) was 155 % of control and 156 % of control and the T/C (endpoint: mean survival time, dose: 8.0 mg/kg/injection, schedule: Q01DX009 (ip), vehicle: saline) was 96 % of control and 97 % of control. For the same molecule, the T/C (endpoint: mean survival time, dose: 8.0 mg/kg/injection, schedule: Q01DX009 (sc), vehicle: saline) was 105 % of control, the T/C (endpoint: mean survival time, dose: 8.0 mg/kg/injection, schedule: Q04DX003 (ip), vehicle: saline) was 189 % of control and 446 % of control and the T/C (endpoint: mean survival time, dose: 8.0 mg/kg/injection, schedule: Q08DX002 (ip), vehicle: saline) was 184 % of control. For the same molecule, the T/C (endpoint: mean survival time, dose: 10.0 mg/kg/injection, schedule: Q04DX003 (ip), vehicle: saline) was 288 % of control, the T/C (endpoint: mean survival time, dose: 10.6 mg/kg/injection, schedule: Q01DX009 (ip), vehicle: saline) was 100 % of control and the T/C (endpoint: mean survival time, dose: 10.6 mg/kg/injection, schedule: Q04DX003 (ip), vehicle: saline) was 243 % of control. For the same molecule, the T/C (endpoint: mean survival time, dose: 16.0 mg/kg/injection, schedule: Q01DX001 (ip), vehicle: saline) was 175 % of control, the T/C (endpoint: mean survival time, dose: 16.0 mg/kg/injection, schedule: Q01DX001 (sc), vehicle: saline) was 174 % of control and the T/C (endpoint: mean survival time, dose: 16.0 mg/kg/injection, schedule: Q04DX003 (ip), vehicle: saline) was 116 % of control. The T/C (endpoint: mean survival time, dose: 16.0 mg/kg/injection, schedule: Q08DX002 (ip), vehicle: saline) was 162 % of control, the T/C (endpoint: mean survival time, dose: 20.0 mg/kg/injection, schedule: Q01DX001 (ip), vehicle: saline) was 92 % of control and the T/C (endpoint: median survival time, dose: 2.0 mg/kg/injection, schedule: Q01DX001 (ip), vehicle: saline) was 119 % of control and 104 % of control. For the same molecule, the T/C (endpoint: median survival time, dose: 4.0 mg/kg/injection, schedule: Q01DX001 (ip), vehicle: saline) was 117 % of control, the T/C (endpoint: median survival time, dose: 4.0 mg/kg/injection, schedule: Q03DX003 (ip), vehicle: saline) was 175 % of control and 222 % of control and the T/C (endpoint: median survival time, dose: 6.0 mg/kg/injection, schedule: Q03DX003 (ip), vehicle: saline) was 189 % of control and 266 % of control. For the same molecule, the T/C (endpoint: median survival time, dose: 8.0 mg/kg/injection, schedule: Q03DX003 (ip), vehicle: saline) was 206 % of control and 253 % of control, the T/C (endpoint: median survival time, dose: 12.0 mg/kg/injection, schedule: Q03DX003 (ip), vehicle: saline) was 229 % of control and the T/C (endpoint: median survival time, dose: 16.0 mg/kg/injection, schedule: Q01DX001 (ip), vehicle: saline) was 168 % of control and 182 % of control. For the same molecule, the T/C (endpoint: median survival time, dose: 32.0 mg/kg/injection, schedule: Q01DX001 (ip), vehicle: saline) was 113 % of control and 104 % of control and the T/C (endpoint: median survival time, dose: 64.0 mg/kg/injection, schedule: Q01DX001 (ip), vehicle: saline) was 117 % of control and 105 % of control.

In the case of `COc1cc(OC)c(NC(=O)Oc2ccc(NC(C)=O)cc2)cc1Cl`, the T/C (endpoint: mean survival time, dose: 50.0 mg/kg/injection, schedule: Q01DX009 (ip), vehicle: saline with Tween-80) is reported as 88 % of control and the T/C [4] is reported as 96 % of control.

In the case of `O=C1c2ccccc2S(=O)(=O)N1CC(O)COc1ccc(Cl)cc1` (stereo not drawn), the T/C [1] is reported as 101 % of control, the T/C [2] is reported as 101 % of control and the T/C [3] is reported as 93 % of control.

In the case of `COC(=O)/N=C(/N)SC`, the T/C [1] is reported as 100 % of control, the T/C [2] is reported as 106 % of control and the T/C [3] is reported as 97 % of control.

`Nc1ccc(CNc2ccccc2)cc1` was tested, and the T/C (endpoint: mean survival time, dose: 100.0 mg/kg/injection, schedule: Q04DX002 (ip), vehicle: other) was 95 % of control and 103 % of control, the T/C (endpoint: mean survival time, dose: 200.0 mg/kg/injection, schedule: Q04DX002 (ip), vehicle: other) was 100 % of control and 106 % of control and the T/C (endpoint: mean survival time, dose: 400.0 mg/kg/injection, schedule: Q04DX002 (ip), vehicle: other) was 118 % of control and 91 % of control.

For `COc1cc(NC(C)=O)ccn1`, the T/C [4] was 95 % of control, the T/C (endpoint: mean survival time, dose: 200.0 mg/kg/injection, schedule: Q01DX009 (ip), vehicle: saline with Tween-80) was 96 % of control and the T/C (endpoint: mean survival time, dose: 400.0 mg/kg/injection, schedule: Q01DX009 (ip), vehicle: saline with Tween-80) was 102 % of control.

For `O=c1[nH]c2cc(Br)ccc2c2ccc(Br)cc12`, the T/C [5] was 95 % of control, the T/C [6] was 98 % of control and the T/C [7] was 101 % of control. For the same molecule, the T/C [8] was 104 % of control.

With `CN(C)C1c2ccccc2-c2ccc(NC(=O)C(F)(F)F)cc21` (stereo not drawn) the T/C [5] was 107 % of control, the T/C [6] was 92 % of control and the T/C [7] was 95 % of control. For the same molecule, the T/C [8] was 113 % of control.
